Laboratory results reported in patent US20230064983A1 (priority 2020, published 2023).
Several values for one entry are separate records, joined by “and”; a condition that tells them apart may be missing. Equal values may be shown once. Read-outs that look alike come from different tables or passages of the source.

Legend:
[1] = target: Ba/F3-EGFR-WT cells (Homo sapiens, UniProt P00533); assay: Ba/F3 cell survival assay, wild type EGFR; type: cell-based
[2] = target: Ba/F3-EGFR-D770_N771insSVD cells (Homo sapiens, UniProt P00533, DUP768-770, cells depend on it); assay: Ba/F3 cell survival assay, EGFR D770_N771insSVD; type: cell-based
[3] = target: T1, Bub1 (Homo sapiens, UniProt O43683); assay: Bub1 high ATP kinase assay (TR-FRET); type: biochemical; conditions: Bub1 high ATP (2 mM) IC50, TR-FRET, 2 mM ATP; Table 3
T1 construct: catalytic domain of human Bub1 (amino acids 704-1085); His6 (N); made in house; host or cells: insect cells (Hi5)
Outline: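 Read-out was the 665/620 nm TR-FRET ratio after 1 h at 22 °C with EDTA stop mix (streptavidin-XL665, anti-phosphoserine antibody, Eu anti-mouse IgG). Beforehand, a biotinylated peptide was phosphorylated for 60 min at 22 °C under high ATP by His6-tagged human Bub1 residues 704-1085 expressed in Hi5 cells, about 200 ng/ml.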

[4] = target: T2, EGFR with insertion SVD between D770 and N771 (mutEGFR D770_N771insSVD) (Homo sapiens, UniProt P00533, DUP768-770); assay: Exon20-Mutant-EGFR(D770_N771insSVD) kinase assay (TR-FRET); type: biochemical; conditions: 2 mM ATP, Table 2
T2 construct: amino acids R669 to A1210; made in house; host or cells: Sf9 insect cells (baculovirus)

[5] = Cell Titer-Glo, 48 h, with 10 ng/mL EGF; Table 4; read-out: BA/F3 (wild type) IC50
[6] = Cell Titer-Glo, 48 h, without IL-3; Table 4; read-out: BA/F3 (insSVD) IC50

Chain of Ba/F3-EGFR-D770_N771insSVD cells (P00533 with tags, fused parts or gaps DUP768-770): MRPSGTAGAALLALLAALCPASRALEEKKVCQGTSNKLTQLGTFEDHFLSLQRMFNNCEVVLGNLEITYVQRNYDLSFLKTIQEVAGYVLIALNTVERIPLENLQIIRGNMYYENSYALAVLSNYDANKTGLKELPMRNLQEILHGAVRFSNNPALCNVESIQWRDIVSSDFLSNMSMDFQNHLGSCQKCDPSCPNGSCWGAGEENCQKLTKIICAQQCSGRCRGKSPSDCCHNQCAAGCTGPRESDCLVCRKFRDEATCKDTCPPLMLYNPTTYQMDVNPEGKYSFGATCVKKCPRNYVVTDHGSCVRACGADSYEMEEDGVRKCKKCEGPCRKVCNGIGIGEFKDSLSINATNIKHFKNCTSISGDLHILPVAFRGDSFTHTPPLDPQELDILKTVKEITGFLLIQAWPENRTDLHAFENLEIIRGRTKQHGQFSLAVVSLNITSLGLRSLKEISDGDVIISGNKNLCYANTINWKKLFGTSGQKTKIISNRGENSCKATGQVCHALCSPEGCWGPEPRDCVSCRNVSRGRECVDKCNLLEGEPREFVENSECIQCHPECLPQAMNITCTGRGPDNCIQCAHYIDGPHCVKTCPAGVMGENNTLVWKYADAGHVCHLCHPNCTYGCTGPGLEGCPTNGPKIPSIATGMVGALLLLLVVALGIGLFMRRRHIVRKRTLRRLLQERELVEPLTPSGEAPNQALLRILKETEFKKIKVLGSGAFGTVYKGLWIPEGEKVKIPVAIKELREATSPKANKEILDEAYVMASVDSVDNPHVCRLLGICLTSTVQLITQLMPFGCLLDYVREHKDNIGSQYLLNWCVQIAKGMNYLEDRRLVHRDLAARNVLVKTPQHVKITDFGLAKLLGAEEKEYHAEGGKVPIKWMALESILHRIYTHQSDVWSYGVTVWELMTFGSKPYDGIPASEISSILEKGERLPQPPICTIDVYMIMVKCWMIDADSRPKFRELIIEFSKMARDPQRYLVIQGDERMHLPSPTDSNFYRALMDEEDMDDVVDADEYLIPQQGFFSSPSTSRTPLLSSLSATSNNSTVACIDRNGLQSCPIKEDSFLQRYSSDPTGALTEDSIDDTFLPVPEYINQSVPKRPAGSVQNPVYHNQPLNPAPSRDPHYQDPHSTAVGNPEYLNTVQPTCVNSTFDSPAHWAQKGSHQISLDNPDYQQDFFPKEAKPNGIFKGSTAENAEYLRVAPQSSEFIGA
T1 sequence (O43683 704-1085): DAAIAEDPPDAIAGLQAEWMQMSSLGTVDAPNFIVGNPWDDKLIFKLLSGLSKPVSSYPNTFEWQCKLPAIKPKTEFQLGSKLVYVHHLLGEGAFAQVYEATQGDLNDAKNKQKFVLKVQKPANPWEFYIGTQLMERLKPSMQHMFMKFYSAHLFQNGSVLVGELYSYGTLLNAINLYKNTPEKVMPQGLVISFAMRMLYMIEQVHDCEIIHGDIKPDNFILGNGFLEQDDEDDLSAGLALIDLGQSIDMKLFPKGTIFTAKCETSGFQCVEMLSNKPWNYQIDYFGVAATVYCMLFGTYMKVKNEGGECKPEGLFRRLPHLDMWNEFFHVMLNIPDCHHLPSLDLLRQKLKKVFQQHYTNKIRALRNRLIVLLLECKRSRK
T2 sequence (P00533 other isoform, or with tags, fused parts or gaps DUP768-770): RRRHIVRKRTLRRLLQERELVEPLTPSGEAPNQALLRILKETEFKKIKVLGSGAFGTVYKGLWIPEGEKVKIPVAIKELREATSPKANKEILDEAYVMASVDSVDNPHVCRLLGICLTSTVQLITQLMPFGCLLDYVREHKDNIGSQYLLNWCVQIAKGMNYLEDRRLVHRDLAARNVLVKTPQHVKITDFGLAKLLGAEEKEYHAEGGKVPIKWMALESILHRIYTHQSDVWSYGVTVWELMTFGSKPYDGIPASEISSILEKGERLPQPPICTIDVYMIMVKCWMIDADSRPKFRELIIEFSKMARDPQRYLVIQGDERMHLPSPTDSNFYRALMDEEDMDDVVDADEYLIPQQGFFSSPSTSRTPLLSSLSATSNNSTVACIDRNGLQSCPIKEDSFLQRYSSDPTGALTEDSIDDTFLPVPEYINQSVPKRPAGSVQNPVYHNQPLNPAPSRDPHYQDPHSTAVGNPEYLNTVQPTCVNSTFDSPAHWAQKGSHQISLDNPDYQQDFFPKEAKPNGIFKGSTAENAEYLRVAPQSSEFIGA
Chain of Ba/F3-EGFR-WT cells (P00533 whole entry, looked up, stated change not applied): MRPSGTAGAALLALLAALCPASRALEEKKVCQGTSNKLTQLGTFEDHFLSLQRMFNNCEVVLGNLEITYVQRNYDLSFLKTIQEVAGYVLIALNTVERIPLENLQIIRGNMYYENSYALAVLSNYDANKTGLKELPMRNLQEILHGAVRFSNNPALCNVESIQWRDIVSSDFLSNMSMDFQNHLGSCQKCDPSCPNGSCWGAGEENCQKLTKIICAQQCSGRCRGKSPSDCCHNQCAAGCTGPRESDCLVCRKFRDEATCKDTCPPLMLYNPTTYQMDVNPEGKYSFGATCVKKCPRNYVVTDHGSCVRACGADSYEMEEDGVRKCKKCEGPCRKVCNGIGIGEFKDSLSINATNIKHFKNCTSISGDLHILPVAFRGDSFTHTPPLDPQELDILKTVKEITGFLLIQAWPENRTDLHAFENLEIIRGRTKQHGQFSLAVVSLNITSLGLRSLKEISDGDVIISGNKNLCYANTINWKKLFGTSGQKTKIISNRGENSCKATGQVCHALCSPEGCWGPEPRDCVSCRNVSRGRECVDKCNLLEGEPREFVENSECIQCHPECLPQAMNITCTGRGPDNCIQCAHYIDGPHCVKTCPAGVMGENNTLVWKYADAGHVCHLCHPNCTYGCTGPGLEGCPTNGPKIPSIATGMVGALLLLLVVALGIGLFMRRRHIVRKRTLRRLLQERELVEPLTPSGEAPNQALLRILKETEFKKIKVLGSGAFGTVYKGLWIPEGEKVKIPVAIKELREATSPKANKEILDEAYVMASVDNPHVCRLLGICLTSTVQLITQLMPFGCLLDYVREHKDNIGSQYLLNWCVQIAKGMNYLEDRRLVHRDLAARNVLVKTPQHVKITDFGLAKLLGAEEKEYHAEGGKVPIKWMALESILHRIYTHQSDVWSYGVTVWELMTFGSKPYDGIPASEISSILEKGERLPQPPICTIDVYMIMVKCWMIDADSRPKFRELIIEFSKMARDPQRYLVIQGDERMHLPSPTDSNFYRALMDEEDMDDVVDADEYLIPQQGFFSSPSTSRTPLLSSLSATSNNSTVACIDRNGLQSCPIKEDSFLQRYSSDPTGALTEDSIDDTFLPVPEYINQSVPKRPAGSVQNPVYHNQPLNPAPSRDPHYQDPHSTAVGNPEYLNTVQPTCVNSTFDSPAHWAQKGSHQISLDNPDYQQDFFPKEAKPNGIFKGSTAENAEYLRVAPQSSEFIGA

Row | SMILES | IC50 [3] | mutEGFR (D770_N771insSVD) kinase assay IC50 [4] [nM] | GI50 [1, 5] [nM] | GI50 [2, 6] [nM] | GI50 ([1]; read-out: BA/F3 (wild type) IC50; Cell Titer-Glo, 48 h, with 10 ng/mL EGF; Table 4) [nM] | GI50 ([2]; read-out: BA/F3 (insSVD) IC50; Cell Titer-Glo, 48 h, without IL-3; Table 4) [nM]
1 | COc1c(Cl)cccc1Nc1c(-c2ccncc2OCC2COC(C)(C)CO2)[nH]c2c1C(=O)NC1(CCC1)C2 (single isomer, unassigned) [Example 131, 3′-(3-chloro-2-methoxyanilino)-2′-{3-[(5,5-dimethyl-1,4-dioxan-2-yl)methoxy]pyridin-4-yl}-1′,7′-dihydrospiro[cyclobutane-1,6′-pyrrolo[3,2-c]pyridin]-4′(5′H)-one] | 1670 nM | 0.318 | 980 | 48.4 |  | 
2 | COc1c(Cl)cccc1Nc1c(-c2ccncc2OCC2COC(C)(C)CO2)[nH]c2c1C(=O)NC1(CC1)C2 (centres unmarked) [Example 132, 3′-(3-chloro-2-methoxyanilino)-2′-{3-[(5,5-dimethyl-1,4-dioxan-2-yl)methoxy]pyridin-4-yl}-1′,7′-dihydrospiro[cyclopropane-1,6′-pyrrolo[3,2-c]pyridin]-4′(5′H)-one] | 1480 nM | 0.394 | 986 | 44.9 |  | 
3 | COCC(C)Oc1cnccc1-c1[nH]c2c(c1Nc1cccc(Cl)c1C)C(=O)N[C@H](C)C2 (stereo partly drawn) [Example 105, (6R)-3-(3-chloro-2-methylanilino)-2-{3-[(1-methoxypropan-2-yl)oxy]pyridin-4-yl}-6-methyl-1,5,6,7-tetrahydro-4H-pyrrolo[3,2-c]pyridin-4-one] | 3700 nM | 0.324 | 884 | 44.7 |  | 
4 | Cc1c(Cl)cccc1Nc1c(-c2ccncc2OC[C@@H]2CCCO2)[nH]c2c1C(=O)N[C@H](C)C2 [Example 104, (6R)-3-(3-chloro-2-methylanilino)-6-methyl-2-(3-{[(2S)-oxolan-2-yl]methoxy}pyridin-4-yl)-1,5,6,7-tetrahydro-4H-pyrrolo[3,2-c]pyridin-4-one] | 3630 nM | 0.162 |  |  | 983 | 32.3
5 | Cc1c(Cl)cccc1Nc1c(-c2ccncc2OC[C@@H]2CN(C)CCO2)[nH]c2c1C(=O)N[C@H](C)C2 [Example 107, (6R)-3-(3-chloro-2-methylanilino)-6-methyl-2-(3-{[(2S)-4-methylmorpholin-2-yl]methoxy}pyridin-4-yl)-1,5,6,7-tetrahydro-4H-pyrrolo[3,2-c]pyridin-4-one] | > 20000 nM | 0.115 | 546 | 25 |  | 
6 | COc1c(F)cccc1Nc1c(-c2ccncc2OC[C@@H]2CCCO2)[nH]c2c1C(=O)NC(C)C2 (mixture of isomers) [Example 8, 3-(3-fluoro-2-methoxyanilino)-6-methyl-2-(3-{[(2S)-oxolan-2-yl]methoxy}pyridin-4-yl)-1,5,6,7-tetrahydro-4H-pyrrolo[3,2-c]pyridin-4-one] | 12800 nM and 9720 nM and > 20000 nM | 0.246 | 623 | 73.3 |  | 
7 | COc1c(Cl)cccc1Nc1c(-c2ccncc2OCC(C)(C)OC)[nH]c2c1C(=O)N[C@H](C)C2 [Example 1, (6R)-3-(3-chloro-2-methoxyanilino)-2-[3-(2-methoxy-2-methylpropoxy)pyridin-4-yl]-6-methyl-1,5,6,7-tetrahydro-4H-pyrrolo[3,2-c]pyridin-4-one] | 1320 nM | 0.135 | 417 | 17.8 |  | 
8 | COc1c(Cl)cccc1Nc1c(-c2ccncc2OCC2COC(C)(C)CO2)[nH]c2c1C(=O)NC1(CCC1)C2 (centres unmarked) [Example 129, 3′-(3-chloro-2-methoxyanilino)-2′-{3-[(5,5-dimethyl-1,4-dioxan-2-yl)methoxy]pyridin-4-yl}-1′,7′-dihydrospiro[cyclobutane-1,6′-pyrrolo[3,2-c]pyridin]-4′(5′H)-one] | 1310 nM | 0.257 | 293 | 14 |  | 

More lines, main results first:

Row | IC50 [3] | mutEGFR (D770_N771insSVD) kinase assay IC50 [4] [nM] | SMILES | GI50 [1, 5] [nM] | GI50 [2, 6] [nM] | GI50 ([1]; read-out: BA/F3 (wild type) IC50; Cell Titer-Glo, 48 h, with 10 ng/mL EGF; Table 4) [nM] | GI50 ([2]; read-out: BA/F3 (insSVD) IC50; Cell Titer-Glo, 48 h, without IL-3; Table 4) [nM]
9 | 1520 nM | 0.324 | Cc1c(Cl)cccc1Nc1c(-c2ccncc2OCC2CCCCO2)[nH]c2c1C(=O)NCC2C (single isomer, unassigned) [Example 119, 3-(3-chloro-2-methyl-anilino)-7-methyl-2-[3-(tetrahydropyran-2-ylmethoxy)-4-pyridyl]-1,5,6,7-tetrahydropyrrolo[3,2-c]pyridin-4-one] | 1290 | 54.7 |  | 
10 | > 20000 nM | 0.15 | COc1c(Cl)cccc1Nc1c(-c2ccncc2OCC2COC(C)(C)CO2)[nH]c2c1C(=O)N[C@H](C)C2 (mixture of isomers) [Example 77, (6R)-3-(3-chloro-2-methoxy-anilino)-2-{3-[(5,5-dimethyl-1,4-dioxan-2-yl)methoxy]-4-pyridyl}-6-methyl-1,5,6,7-tetrahydropyrrolo[3,2-c]pyridin-4-one] | 3200 | 15.3 |  | 
11 | 1550 nM | 0.255 | Cc1c(Cl)cccc1Nc1c(-c2ccncc2OCC2COCCO2)[nH]c2c1C(=O)NCC2C (single isomer, unassigned) [Example 70, 3-(3-chloro-2-methyl-anilino)-2-[3-(1,4-dioxan-2-ylmethoxy)-4-pyridyl]-7-methyl-1,5,6,7-tetrahydropyrrolo[3,2-c]pyridin-4-one] | 4630 | 224 |  | 
12 | 4900 nM | 0.331 | COc1c(Cl)cccc1Nc1c(-c2ccncc2OCC2COCCO2)[nH]c2c1C(=O)NCC2C (single isomer, unassigned) [Example 36, 3-(3-chloro-2-methoxy-anilino)-2-[3-(1,4-dioxan-2-ylmethoxy)-4-pyridyl]-7-methyl-1,5,6,7-tetrahydropyrrolo[3,2-c]pyridin-4-one] | 963 | 75.3 |  | 
13 | 374 nM | 0.205 | COc1c(Cl)cccc1Nc1c(-c2ccncc2OC[C@@H]2COCCO2)[nH]c2c1C(=O)NC1(CC1)C2 [Example 111, 3′-(3-chloro-2-methoxyanilino)-2′-(3-{[(2S)-1,4-dioxan-2-yl]methoxy}pyridin-4-yl)-1′,7′-dihydrospiro[cyclopropane-1,6′-pyrrolo[3,2-c]pyridin]-4′(5′H)-one] | 574 | 19.4 |  | 
14 | 9720 nM | 0.139 | COc1c(Cl)cccc1Nc1c(-c2ccncc2OCC2CCCCO2)[nH]c2c1C(=O)N[C@H](C)C2 (single isomer, unassigned) [Example 28] | 189 | 8.33 |  | 
15 | 8030 nM | 0.329 | Cc1c(Cl)cccc1Nc1c(-c2ccncc2OCC2COC(C)(C)CO2)[nH]c2c1C(=O)NCC2C (centres unmarked) [Example 62, 3-(3-chloro-2-methyl-anilino)-2-[3-[(5,5-dimethyl-1,4-dioxan-2-yl)methoxy]-4-pyridyl]-7-methyl-1,5,6,7-tetrahydropyrrolo[3,2-c]pyridin-4-one] | 1100 | 52.6 |  | 
16 | 1620 nM | 0.603 | Cc1c(Cl)cccc1Nc1c(-c2ccncc2OC[C@@H]2CCCO2)[nH]c2c1C(=O)NCC2C (single isomer, unassigned) [Example 60] | 1070 | 175 |  | 
17 | > 20000 nM | 0.179 | COc1c(Cl)cccc1Nc1c(-c2ccncc2OC[C@@H]2CN(C)CCO2)[nH]c2c1C(=O)N[C@H](C)C2 [Example 11, (6R)-3-(3-chloro-2-methoxyanilino)-6-methyl-2-(3-{[(2S)-4-methylmorpholin-2-yl]methoxy}pyridin-4-yl)-1,5,6,7-tetrahydro-4H-pyrrolo[3,2-c]pyridin-4-one] | 264 | 17.8 |  | 
18 | 1650 nM | 0.184 | Cc1c(Cl)cccc1Nc1c(-c2ccncc2OC[C@@H]2COCCO2)[nH]c2c1C(=O)N[C@H](C)C2 [Example 103, (6R)-3-(3-chloro-2-methylanilino)-2-(3-{[(2S)-1,4-dioxan-2-yl]methoxy}pyridin-4-yl)-6-methyl-1,5,6,7-tetrahydro-4H-pyrrolo[3,2-c]pyridin-4-one] | 529 | 32.2 |  | 
19 | 15600 nM | 0.278 | COc1c(Cl)cccc1Nc1c(-c2ccncc2OC[C@@H]2COCCN2C)[nH]c2c1C(=O)NCC2CCF (single isomer, unassigned) [Example 89] | 425 | 18.2 |  | 
20 | 11600 nM | 0.66 | COc1c(Cl)cccc1Nc1c(-c2ccncc2OCC2(C)CCO2)[nH]c2c1C(=O)NCC2CCO (single isomer, unassigned) [Example 22, 3-(3-chloro-2-methoxyanilino)-7-(2-hydroxyethyl)-2-{3-[(2-methyloxetan-2-yl)methoxy]pyridin-4-yl}-1,5,6,7-tetrahydro-4H-pyrrolo[3,2-c]pyridin-4-one] | 2630 | 616 |  | 
